In patent US20070231202A1 (priority 2006, published 2007):

Tests used:
[1] = system: prions (10% brain homogenates from hamsters with scrapie); format: in vivo, hamster; details: hydrogen peroxide vapor of higher concentrations and/or higher plasma density
prions = details: 59% solution admitted into sterilization chamber under vacuum, vapor at one point excited into plasma

## OO [hydrogen peroxide]
[1]
  inactivating prions, rendering article non-infectious for prion diseases: effective in inactivating prions
prions
  inactivation of prions on the instruments: failed to sufficiently inactivate prions
